Data as given in PubChem BioAssay (NCI).
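Step 1: Grow cells in 96-well plates. Step 2: Expose to compound for 48 hours at 5 concentrations. Step 3: Interpolate endpoints linearly; if unreached, use highest concentration. GI50 is the concentration that inhibits growth by half. TGI is the concentration that stops growth completely.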

What was measured:
Assay in all cases: inhibition of tumour cell growth, NCI panel, 48 h
MDA-MB-231 breast = tested on: MDA-MB-231 breast
T-47D breast = tested on: T-47D breast
NCI/ADR-RES ovarian = tested on: NCI/ADR-RES ovarian
DU-145 prostate = tested on: DU-145 prostate
SN12C renal = tested on: SN12C renal
BT-549 breast = tested on: BT-549 breast
MCF7 breast = tested on: MCF7 breast
SF-268 CNS = tested on: SF-268 CNS
HCT-116 colon = tested on: HCT-116 colon
RPMI-8226 leukemia = tested on: RPMI-8226 leukemia

SMILES | TGI (MDA-MB-231 breast) [µM] | TGI (T-47D breast) [µM] | TGI (NCI/ADR-RES ovarian) [µM] | TGI (DU-145 prostate) [µM] | TGI (SN12C renal) [µM] | TGI (BT-549 breast) [µM] | TGI (MCF7 breast) [µM] | TGI (SF-268 CNS) [µM] | TGI (HCT-116 colon) [µM] | GI50 (DU-145 prostate) [µM] | GI50 (BT-549 breast) [µM] | TGI (RPMI-8226 leukemia) [µM] | GI50 (RPMI-8226 leukemia) [µM] | GI50 (MDA-MB-231 breast) [µM] | GI50 (T-47D breast) [µM] | GI50 (NCI/ADR-RES ovarian) [µM] | GI50 (SN12C renal) [µM] | GI50 (MCF7 breast) [µM] | GI50 (SF-268 CNS) [µM] | GI50 (HCT-116 colon) [µM]
COc1ccccc1N1C(=O)CSC1c1cccc(Oc2ccccc2)c1 (stereo not given) | 32.4 | 58.1 | 46.2 | 38.7 | 31.9 | 31.9 | 37.1 | 36.3 | 31.5 |  |  |  |  |  |  |  |  |  |  | 
COC1=CC(c2ccc[nH]2)=N/C1=C\c1[nH]c(C)c(CC(=O)NCc2ccccc2)c1C |  |  |  | 2.82 |  | 3.06 |  |  |  | 1.39 | 1.41 |  |  |  |  |  |  |  |  | 
Brc1ccc2nc(-c3cccs3)nc(N3CCN(c4ccccc4)CC3)c2c1 | > 100 | > 100 | > 100 | > 100 | > 100 | > 100 | > 100 | > 100 | > 100 |  |  | > 100 |  |  |  |  |  |  |  | 
CCOC(=O)NC(=O)c1cn(CCN(CCO)C(=O)NCCCCCCNC(=O)N(CCO)CCn2cc(C(=O)NC(=O)OCC)c(=O)[nH]c2=O)c(=O)[nH]c1=O |  |  | > 100 |  | > 100 |  | > 100 | > 100 | > 100 |  |  | > 100 |  |  |  |  |  |  |  | 
NS(=O)(=O)c1ccc(N=Nc2ccc(O)cc2)cc1 | > 100 | > 100 | > 100 | > 100 | > 100 | 62.5 | > 100 | > 100 | > 100 |  |  | > 100 |  |  |  |  |  |  |  | 
CC1=C/C(=N\NS(=O)(=O)c2ccc([N+](=O)[O-])cc2)CC(C)(C)C1 | > 100 | > 100 | > 100 | > 100 | > 100 |  | > 100 | > 100 | > 100 |  |  | > 100 |  |  |  |  |  |  |  | 
N#CC1(C#N)C(=O)c2ccncc2C1=O | > 100 | > 100 | > 100 | > 100 | > 100 | > 100 | > 100 | > 100 | > 100 |  |  | > 100 |  |  |  |  |  |  |  | 
COc1cc(-c2n/c(=C\c3c(O)[nH]c4ccccc34)cc3c2=Nc2ccccc2-3)ccc1F | 16.8 | 82 | 43 | 25.5 | 34 | 18.1 | > 100 | 44.2 | 21.6 | 7.3 | 4.07 | > 100 | 17.5 | 3.91 | 6.87 | 5.78 | 10.7 | 2.51 | 10.6 | 4.09
CN(CCO)CCC1COc2ccccc2O1 (stereo not given) | > 10 | > 10 | > 10 | > 10 | > 10 |  | > 10 | > 10 | > 10 |  |  | > 10 |  |  |  |  |  |  |  | 
O=C(CSc1nc2ccc(I)cc2c(=O)n1Cc1ccccc1)NNC(=S)Nc1ccccc1 |  | > 100 | > 100 | > 100 | > 100 | > 100 | > 100 | > 100 | > 100 |  |  | > 100 |  |  |  |  |  |  |  | 
COc1c(O)cc2c(c1O)C(=O)C(Cc1ccc(O)cc1)CO2 (stereo not given) | > 100 | > 100 | > 100 | > 100 | > 100 | > 100 | > 100 | > 100 | > 100 |  |  | > 100 |  |  |  |  |  |  |  | 
O=C([O-])c1ccccc1Nc1ccccc1C(=O)[O-].[OH3+].[Zn+2] |  |  |  |  | > 100 |  |  | 40.2 | > 78.2 |  |  | > 100 |  |  |  |  |  |  |  | 
